The text below walks through data of patent US9029531B2 (Agios Pharmaceuticals, Inc., priority 2012, dated 2015).

The term pIC50 denotes −log10 of the IC50, conventionally taken in molar units. Read a high pIC50 as a low IC50.

SMILES strings stand for the structures. pIC50: −log10 of the molar value.

The assay concerns the target T1, glutaminase (GAC) (Homo sapiens, UniProt O94925).
T1 sequence (O94925 55-598 isoform O94925-3 limits assumed): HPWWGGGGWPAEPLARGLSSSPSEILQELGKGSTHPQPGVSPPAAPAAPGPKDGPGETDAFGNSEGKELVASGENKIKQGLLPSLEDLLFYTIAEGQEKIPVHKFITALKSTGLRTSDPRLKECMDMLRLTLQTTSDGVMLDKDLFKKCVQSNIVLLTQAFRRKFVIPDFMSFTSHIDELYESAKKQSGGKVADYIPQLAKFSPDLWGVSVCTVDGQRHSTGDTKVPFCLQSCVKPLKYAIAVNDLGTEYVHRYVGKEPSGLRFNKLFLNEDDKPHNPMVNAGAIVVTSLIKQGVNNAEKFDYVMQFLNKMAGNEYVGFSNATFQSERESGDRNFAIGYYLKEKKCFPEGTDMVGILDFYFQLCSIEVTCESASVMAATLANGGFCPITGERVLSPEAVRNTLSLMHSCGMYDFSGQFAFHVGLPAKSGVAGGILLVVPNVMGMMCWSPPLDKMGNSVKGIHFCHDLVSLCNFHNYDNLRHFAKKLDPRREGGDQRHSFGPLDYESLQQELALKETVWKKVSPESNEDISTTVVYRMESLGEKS
As to the kind of experiment: Glutaminase coupled endpoint enzymatic assay (Example A). Type of assay: biochemical. Conditions: inhibition of glutaminase; assay of Example A or Example B. The text has this: In certain embodiments, exemplary compounds of Formula I include the compounds described in Table 1 and in the Examples. A compound described herein may be tested for its ability to inhibit glutaminase, e.g., by an assay as described in the Examples. For simplicity, the inhibition activity of these compounds is represented as an IC50 tested in an assay of Example A or Example B in Table 1. […] “N/A” refers to compounds wherein the IC50 is unavailable.
In this example, the enzymatic activity of glutaminase is measured through a coupled endpoint assay. Glutamine and phosphate are supplied to GAC at a concentration equal to Km and AC50, respectively, and GAC concentration is adjusted to give a linear reaction for 60 minutes. The glutamate produced is converted to 2-OG by a kinetic excess of glutamate dehydrogenase. This second step is configured for 2×Km for NAD, since excess NAD is inhibitory. However, a kinetic excess of the third coupling enzyme, diaphorase, recycles NAD from NADH to keep the NAD concentration constant during the timecourse of the assay. Diaphorase, also supplied in kinetic excess, oxidizes NADH produced by GDH back to NAD with the concomitant reduction of rezasurin to the highly fluorescent resorufin. Resorufin in measured after the assay is stopped with SDS by Ex544/Em590. A reduction in the signal indicates inhibition of some component of the coupled enzyme system. Prospective hits are counterscreened against GDH/diaphorase alone to remove hits to the coupling enzyme system in a second assay.
2. Buffers • 2× Buffer (300 mM NaCl, 100 mM HEPES pH 8.5, 0.1% BSA, 0.5 mM EDTA, 100 mM sodium phosphate pH 8.5) • 5× Substrate Mix (1× Buffer final concentration, with 13 mM glutamine, 100 μM resazurin, 50 μg/ml diaphorase) • 1.2× Enzyme Mix (1× Buffer final concentration, with 0.875 μg/ml GAC, 1.56 mM NAD, 6.25 units/ml GDH) • Stop Mix (6% SDS in ddH2O) Reaction Procedure • 1. Add 1 μl compound in 100% DMSO • 2. Add 40 μl of Enzyme Mix and incubate for 60 minute at room temperature • 3. Add 10 μl of Substrate Mix to start reaction • 4. Stop reaction with 25 μl of 6% SDS and read Ex544 Em 590

With `Nc1ccc(CC(=O)Nc2nnc([C@H]3CCC[C@H](c4nnc(NC(=O)Cc5ccc(N)cn5)s4)C3)s2)nc1` [Compound 233, N,N′-(5,5′-((1S,3S)-cyclohexane-1,3-diyl)bis(1,3,4-thiadiazole-5,2-diyl))bis(2-(5-aminopyridin-2-yl)acetamide)], the pIC50 is over 7.00.
The same measure for `COc1ccc(CC(=O)Nc2nnc([C@H]3CC[C@H](c4nnc(NC(=O)Cc5ccc(OC)nc5)s4)C3)s2)cn1` [Compound 286, N,N′-(5,5′-((1S,3S)-cyclopentane-1,3-diyl)bis(1,3,4-thiadiazole-5,2-diyl))bis(2-(6-methoxypyridin-3-yl)acetamide)]: over 7.00; for `O=C(Cc1ccccn1)Nc1nnc(CC2CCC(Cc3nnc(NC(=O)Cc4ccccn4)s3)C2)s1` (stereo not drawn) [Compound 4, N,N′-(5,5′-(cyclopentane-1,3-diylbis(methylene))bis(1,3,4-thiadiazole-5,2-diyl))bis(2-(pyridin-2-yl)acetamide)]: 5.00 to 5.70; for `O=C(Cc1ccc(N2CCOCC2)cc1)Nc1nnc([C@H]2CCC[C@H](c3nnc(NC(=O)Cc4ccc(N5CCOCC5)cc4)s3)C2)s1` [Compound 265, N,N′-(5,5′-((1S,3S)-cyclohexane-1,3-diyl)bis(1,3,4-thiadiazole-5,2-diyl))bis(2-(4-morpholinophenyl)acetamide)]: 6.30 to 7.00.
In turn, `O=C(Cc1c[nH]c2ccccc12)Nc1nnc([C@@H]2CCC[C@H](c3nnc(NC(=O)Cc4c[nH]c5ccccc45)s3)C2)s1` [Compound 23, N,N′-(5,5′-((1S,3R)-cyclohexane-1,3-diyl)bis(1,3,4-thiadiazole-5,2-diyl))bis(2-(1H-indol-3-yl)acetamide)] had a pIC50 of 6.30 to 7.00.
`CCNc1cccc(CC(=O)Nc2nnc([C@H]3CCC[C@H](c4nnc(NC(=O)Cc5cccc(NCC)c5)s4)C3)s2)c1` [Compound 236, N,N′-(5,5′-((1S,3S)-cyclohexane-1,3-diyl)bis(1,3,4-thiadiazole-5,2-diyl))bis(2-(3-(ethylamino)phenyl)acetamide)]: the pIC50 was over 7.00.
`Cn1cc(CC(=O)Nc2nnc([C@H]3CCC[C@H](c4nnc(NC(=O)Cc5cn(C)c6ccccc56)s4)C3)s2)c2ccccc21` [Compound 16, N,N′-(5,5′-((1S,3S)-cyclohexane-1,3-diyl)bis(1,3,4-thiadiazole-5,2-diyl))bis(2-(1-methyl-1H-indol-3-yl)acetamide)] showed a pIC50 of 6.30 to 7.00.
In the case of `Nc1cccc(CC(=O)Nc2nnc([C@H]3CCC[C@H](c4nnc(NC(=O)Cc5cccc(N)n5)s4)C3)s2)n1` [Compound 232, N,N′-(5,5′-((1S,3S)-cyclohexane-1,3-diyl)bis(1,3,4-thiadiazole-5,2-diyl))bis(2-(6-aminopyridin-2-yl)acetamide)], the pIC50 is over 7.00.
As to `COc1cccc(CC(=O)Nc2nnc([C@@H]3CCCC[C@H](c4nnc(NC(=O)Cc5cccc(OC)c5)s4)C3)s2)c1` [Compound 128], the pIC50 is 6.00 to 6.30.
As for `O=C(Cc1ccc(OC(F)F)cn1)Nc1nnc([C@H]2CCC[C@H](c3nnc(NC(=O)Cc4ccc(OC(F)F)cn4)s3)C2)s1` [Compound 228, N,N′-(5,5′-((1S,3S)-cyclohexane-1,3-diyl)bis(1,3,4-thiadiazole-5,2-diyl))bis(2-(5-(difluoromethoxy)pyridin-2-yl)acetamide)], the pIC50 was over 7.00.
`COc1cccc(CC(=O)Nc2nnc([C@@H]3CCCC[C@@H](c4nnc(NC(=O)Cc5cccc(OC)c5)s4)C3)s2)c1` [Compound 129] gave a pIC50 of 6.00 to 6.30.
Next, `NCc1ccc(CC(=O)Nc2nnc([C@H]3CCC[C@H](c4nnc(NC(=O)Cc5ccc(CN)cc5)s4)C3)s2)cc1` [Compound 246, N,N′-(5,5′-((1S,3S)-cyclohexane-1,3-diyl)bis(1,3,4-thiadiazole-5,2-diyl))bis(2-(4-(aminomethyl)phenyl)acetamide)]: over 7.00.
